The structures appear in SMILES notation. pIC50: −log10 of the molar value.

The test deals with ATP synthase c-subunit (c9 rotor ring) (Mycolicibacterium phlei, UniProt A0A5N5V239). The test is described as follows: X-ray cocrystal structure. Format: binding.

One may read the pIC50 as −log10 of the IC50, conventionally taken in molar units. Low readings indicate a high IC50, high ones a low IC50. For the compound `COc1nc2ccc(Br)cc2cc1[C@@H](c1ccccc1)[C@@](O)(CCN(C)C)c1cccc2ccccc12` [BDQ, Bedaquiline], the negative logarithm of the IC50 (pIC50) was 7.60 to 7.70.

Source of the values: paper PMC4640650 (Science Advances, 2015).
